Like-named read-outs stand apart in the source and are kept apart here. Marks after values point to notes of the source that are not given here.
Columns and labels:
Vero E6 cells [1] = system: Vero E6 cells
Calu3 2B4 cells [2] = conditions: human
SARS-CoV-2 [3] = experiment: microbe, parasite or virus in culture; assay type: cell-based, SARS-CoV-2 clinical isolate 2019-nCoV/USA-WA1/2020
Calu3 2B4 cells [4] = system: Calu3 2B4 cells
SARS-CoV-2 [5] = experiment: microbe, parasite or virus in culture; assay type: cell-based, SARS-CoV-2 clinical isolate 2019-nCoV/USA-WA1/2020; remark: listed apart in the source
HAE cultures [6] = system: HAE cultures
HAE cultures [7] = conditions: female, human
Vero E6 cells [8] = system: Vero E6 cells; remark: listed apart in the source
SARS-CoV-2 [9] = assay type: cell-based, SARS-CoV-2 clinical isolate 2019-nCoV/USA-WA1/2020
[10] = Severe acute respiratory syndrome coronavirus 2, Calu-3 2B4, read-out: EC90 (infectious viral titer)
[11] = Severe acute respiratory syndrome coronavirus 2, Calu-3 2B4, read-out: EC90 (qRT-PCR)
[12] = Severe acute respiratory syndrome coronavirus 2, Calu-3 2B4, read-out: Genome copy EC50
[13] = Severe acute respiratory syndrome coronavirus 2, Calu-3 2B4, read-out: Plaque assay EC50

Structure (SMILES) | cytotoxicity (Vero E6 cells [1]) | RDV-TP at 24 h (Calu3 2B4 cells [2]) | EC90 (SARS-CoV-2 [3]; [10]) [nM] | EC90 (SARS-CoV-2 [3]; [11]) [nM] | EC50 (SARS-CoV-2 [3]; [12]) [nM] | EC50 (SARS-CoV-2 [3]; [13]) [nM] | cytotoxicity (Calu3 2B4 cells [4]) | EC90 (SARS-CoV-2 [5]; Severe acute respiratory syndrome coronavirus 2, Vero C1008, read-out: EC90 (infectious viral titer)) [nM] | EC90 (SARS-CoV-2 [5]; Severe acute respiratory syndrome coronavirus 2, Vero C1008, read-out: EC90 (qRT-PCR)) [nM] | cytotoxicity (HAE cultures [6]) | difference in RDV-TP between the two HAE donor cultures (HAE cultures [7]) | RDV-TP at 24 h (Vero E6 cells [8]; African green monkey) | RDV-TP levels in Vero E6 cells lower than in HAE cultures (Vero E6 cells [8]; African green monkey) [fold] | RDV-TP levels in Vero E6 cells lower than in Calu3 2B4 (Vero E6 cells [8]; African green monkey (Vero E6) and human (Calu3 2B4)) | inhibition of infectious virus production (SARS-CoV-2 [9])
N#C[C@@]1(c2ccc3c(N)ncnn23)O[C@H](CO)[C@@H](O)[C@H]1O [GS-441524] | No significant cytotoxicity | 0.85 ± 0.16 ^e pmol/million cells | 1340 | 1370 | 1090 | 620 | No significant cytotoxicity | 710 | 800 |  |  |  |  |  | 
CCC(CC)COC(=O)[C@H](C)N[P@](=O)(OC[C@H]1O[C@@](C#N)(c2ccc3c(N)ncnn23)[C@H](O)[C@@H]1O)Oc1ccccc1 [RDV, Remdesivir] | No significant cytotoxicity |  | 2480 | 1280 | 600 | 280 | No significant cytotoxicity |  |  | did not cause cytotoxicity | less than 3 fold | 0.50 ± 0.15 ^d pmol/million cells | ~20 | approximately 4 fold | more than 100 fold

Reference: PMC7340027 (Cell Reports, 2020)
